Experimental data published in the NIST ThermoML archive (doi:10.1016/j.jct.2015.08.014).

Experiment: xn = mol fraction of the nth substance listed
Conditions: 283.15 K, 100 kPa, Liquid, Alternating current cell with electrodes

CCCC[N+]1(C)CCCC1.N#CN=C=[N-] [1-butyl-1-methylpyrrolidinium dicyanamide] + O=C1CCCO1
electrical conductivity [S/m]
Conditions | Frequency=0.003 MHz | Frequency=0.00347222 MHz | Frequency=0.004 MHz | Frequency=0.00446429 MHz | Frequency=0.005 MHz | Frequency=0.005454 MHz | Frequency=0.006 MHz | Frequency=0.00652174 MHz | Frequency=0.00694444 MHz | Frequency=0.0075 MHz
x1 = 0.0463 | – | 1.17 | 1.17 | 1.17 | 1.17 | 1.17 | 1.17 | 1.17 | 1.17 | 1.17
x1 = 0.0987 | – | 1.73 | 1.73 | 1.73 | 1.73 | 1.73 | 1.73 | 1.73 | 1.73 | 1.73
x1 = 0.1449 | – | 1.93 | 1.93 | 1.93 | 1.93 | 1.93 | 1.93 | 1.93 | 1.93 | 1.93
x1 = 0.1859 | 2.028 | 2.028 | 2.028 | 2.028 | 2.028 | 2.028 | 2.028 | 2.028 | 2.028 | 2.028
x1 = 0.2493 | 1.925 | 1.925 | 1.926 | 1.926 | 1.926 | 1.926 | 1.926 | 1.926 | 1.926 | 1.926
x1 = 0.3029 | 1.84 | 1.84 | 1.84 | 1.84 | 1.84 | 1.84 | 1.84 | 1.84 | 1.84 | 1.84
x1 = 0.3845 | 1.66 | 1.66 | 1.66 | 1.66 | 1.66 | 1.66 | 1.66 | 1.66 | 1.66 | 1.66
x1 = 0.4985 | 1.407 | 1.407 | 1.407 | 1.407 | 1.407 | 1.407 | 1.407 | 1.407 | 1.407 | 1.407
x1 = 0.6954 | 1.07 | 1.07 | 1.07 | 1.07 | 1.07 | 1.07 | 1.07 | 1.07 | 1.07 | 1.07
x1 = 0.9013 | 0.849 | 0.849 | 0.849 | 0.849 | 0.849 | 0.849 | 0.849 | 0.849 | 0.849 | 0.849
x1 = 1 | 0.786 | 0.786 | 0.786 | 0.786 | 0.786 | 0.786 | 0.786 | 0.786 | 0.786 | 0.786
